Measured values as given in US11518742B2 (priority 2020, dated 2022).

Assays:
[1] = Solid form characterisation of 5MeODMT benzoate lots (XRPD, DSC, TGA, 1H NMR)
[2] = system: Slugs (Arion lusitanicus); type: in vivo; details: Example 8; for Total MP (% body weight): Concentration (w/v) 10%
Text: The Slug Mucosal Irritation (SMI) assay was initially developed at the Laboratory of Pharmaceutical Technology (UGent) to predict the mucosal irritation potency of pharmaceutical formulations and ingredients. The test utilizes the terrestrial slug Arion lusitanicus. The body wall of the slugs is a mucosal surface composed of different layers.
The outer single-layered columnar epithelium that contains cells with cilia, cells with micro-villi and mucus secreting cells covers the subepithelial connective tissue. Slugs that are placed on an irritating substance will produce mucus. Additionally tissue damage can be induced which results in the release of proteins and enzymes from the mucosal surface. […] A classification prediction model that distinguishes between irritation (mucus production) and tissue damage (release of proteins and enzymes) has been developed. […] A 5% shampoo dilution or artificial tears were instilled in the eye and the discomfort was scored by the participants on a 5 point scale during several time points up to 30 min after instillation. The same shampoos were tested in the SMI assay using the Stinging, Itching and Burning (SIB) protocol.
The purpose of this assay was to assess the stinging, itching or burning potential of the test item(s) defined below. Using the objective values obtained for the mucus production the stinging, itching or burning potential of the test item(s) can be estimated by means of the prediction model that is composed of four categories (no, mild, moderate and severe).
Test System: Slugs (Arion lusitanicus); 3 slugs per treatment group. The parental slugs of Arion lusitanicus collected in local gardens along Gent and Aalter (Belgium) are bred in the laboratory in an acclimatized room (18-20° C.). The slugs are housed in plastic containers and fed with lettuce, cucumber, carrots and commercial dog food.
Test Design: A single study was performed.
Slugs weighing between 3 and 6 g were isolated from the cultures two days before the start of an experiment. The body wall was inspected carefully for evidence of macroscopic injuries. […] The slugs were placed in a plastic box lined with paper towel moistened with PBS and were kept at 18-20° C. Daily the body wall of the slugs was wetted with 300 μl PBS using a micropipette.
An overview of this can be seen in FIG. 4.
The mucus production was expressed as % of the body weight.
Based on the endpoint of the SMI assay the stinging, itching or burning potency of the test item(s) was estimated using a classification prediction model.
The evaluation of the test results was based upon the total amount of mucus production during 3 repeated contact periods with the test item.
For each slug, the mucus production was expressed in % of the body weight by dividing the weight of the mucus produced during each contact period by the body weight of the slug before the start of that contact period. The total mucus was calculated for each slug and then the mean per treatment group was calculated. The classification prediction model shown in Table 1 was used to classify the compounds.

ovine nasal epithelium = assay: Permeation through ovine nasal epithelium; type: in vitro ADME; details: for Cumulative amount (μg/cm^2): […] dosing solution in water, mean, n=5; for Permeation compared with the hydrochloride salt: across ovine nasal epithelium
Text: The use of ovine nasal epithelium to study nasal drug absorption is a technique which is well known to the person skilled in the art.

[3] = Dynamic Vapour Sorption (DVS); type: physicochemical
Protocol: A modified DVS isotherm of lot 20/45/006-FP (the same crystalline version) was undertaken to examine material behaviour from 60% RH and above. […] This is to obtain in-depth profiling of the material towards humidity at these elevated levels.
Temperature and humidity are important factors in the processing and storage of pharmaceuticals. DVS provides a versatile and sensitive technique for evaluating the stability of pharmaceutical formulations.
The solution was clarified into a 500 ml round bottom flask, the round bottom flask was rotated in an acetone/dry ice bath to freeze the solution in a thin layer around the flask. The ice was sublimed in vacuo at ambient temperature affording a fluffy white solid. The solid was removed from the round bottom flask and transferred to the DVS instrument. During this transfer, the solid collapsed to a sticky gum.
The sample was examined by DVS from 40% RH and cycled between 0% RH and 90% RH twice.
XRPD was collected on a portion of the sample post-lyophoilisation and post-DVS examination.

[4] = Controlled cooling crystallisation: solubility in minimal solvent at 50 °C; type: physicochemical; details: 50° C.
Protocol: (detailed in the Table below). The solutions were clarified through a 0.45 μm Teflon syringe filter into pre-heated crystallisation tubes and cooled from 50° C. to −10° C. over 60 hours (1° C. Hr-1 cooling rate) and held at −10° C. for 50 hours (no agitation).
Solutions were clarified into crystallisation tubes at 50° C. and were cooled to −10° C. at a rate of 10° C.·hr-1, then equilibrated at −10° C. for 12 hours, then agitated at −10° C. at 400 rpm for 30 minutes which afforded a mobile suspension for all samples except Sample I which remained a solution. Further equilibration with agitation at −10° C. at 400 rpm for 3 hours afforded a thin suspension. All samples were isolated via isolute cartridge and air dried for 5 minutes before characterisation.

[5] = Stability of solid forms (Patterns A, B, C) open to atmosphere and in vacuo at 50 °C, by XRPD; type: physicochemical
Protocol: XRPD was performed regularly. DSC and 1H NMR spectroscopy were performed on samples where significant differences to the diffraction patterns were observed.

[6] = Generation of amorphous 5MeODMT benzoate and conversion on standing (XRPD, DSC); type: physicochemical; details: on standing / all conditions studied
Protocol: The flask was transferred to a vacuum and equilibrated to ambient temperature affording a fluffy white solid, 21-01-051 C.
The solid transformed into gum over ca. 1 hour. The sample was analysed immediately and after 20 hours held in a sealed container.

COc1ccc2[nH]cc(CCN(C)C)c2c1.O=C(O)c1ccccc1
Crystalline character ([1]; predominantly Pattern E lots): Pattern E

COc1ccc2[nH]cc(CCN(C)C)c2c1.Cl [5MeODMT HCl, 5MeODMT hydrochloride]
Irritation score on SMI testing [2]: moderate | Total MP (% body weight) [2]: 10.27 % body weight | Cumulative amount (μg/cm^2) (ovine nasal epithelium; Time 0.0 min): 0.00 μg/cm^2 | Cumulative amount (μg/cm^2) (ovine nasal epithelium; Time 10.0 min): 0.33 μg/cm^2 | Cumulative amount (μg/cm^2) (ovine nasal epithelium; Time 20.0 min): 3.30 μg/cm^2 | Cumulative amount (μg/cm^2) (ovine nasal epithelium; Time 30.0 min): 8.26 μg/cm^2 | Cumulative amount (μg/cm^2) (ovine nasal epithelium; Time 40.0 min): 13.33 μg/cm^2 | Cumulative amount (μg/cm^2) (ovine nasal epithelium; Time 50.0 min): 18.77 μg/cm^2 | Cumulative amount (μg/cm^2) (ovine nasal epithelium; Time 60.0 min): 23.43 μg/cm^2 | Cumulative amount (μg/cm^2) (ovine nasal epithelium; Time 75.0 min): 29.52 μg/cm^2 | State of material upon completion of the DVS cycle ([3]; lot 20/20/126-FP): completed deliquesced | Moisture uptake ([3]; lot 20/20/126-FP, 0-70% RH): less than 0.3 % w/w | Moisture uptake ([3]; lot 20/20/126-FP, 70-80% RH, first sorption cycle): Approximately 23 % w/w | Retained mass above the minimum mass recorded at 0% RH ([3]; lot 20/20/126-FP, subsequent cycles): 6-9 % w/w | Further moisture uptake ([3]; lot 20/20/126-FP, up to and when held at 90% RH): 20 % w/w | Moisture increase ([3]; lot 20/45/006-FP, 70-75% RH): ca. 0.46 % w/w | Moisture uptake ([3]; lot 20/45/006-FP, 75-80% RH): ca. 7% | Moisture uptake ([3]; lot 20/45/006-FP, 80-85% RH): ca. 40% | State of material post DVS analysis ([3]; lot 20/45/006-FP, likely above 80% RH): Complete deliquescence

COc1ccc2[nH]cc(CCN(C)C)c2c1.O=C(O)c1ccccc1 [5MeODMT benzoate 21-01-064 A]
Crystalline character ([1]; predominantly Pattern C lots): Pattern C

COc1ccc2[nH]cc(CCN(C)C)c2c1.O=C(O)c1ccccc1 [5MeODMT benzoate 21-01-064 B]
Crystalline character ([1]; predominantly Pattern C lots): Pattern C

COc1ccc2[nH]cc(CCN(C)C)c2c1.O=C(O)c1ccccc1 [5MeODMT benzoate 21-01-064 C]
Crystalline character ([1]; predominantly Pattern E lots): Pattern E

COc1ccc2[nH]cc(CCN(C)C)c2c1.O=C(O)c1ccccc1 [5MeODMT benzoate 21-01-064 D]
Crystalline character ([1]; predominantly Pattern E lots): Pattern E

COc1ccc2[nH]cc(CCN(C)C)c2c1.O=C(O)c1ccccc1 [5MeODMT benzoate 21-01-064 E (air dried 4 hours)]
Crystalline character ([1]; predominantly Pattern D lots): Pattern D

COc1ccc2[nH]cc(CCN(C)C)c2c1.O=C(O)c1ccccc1 [5MeODMT benzoate 21-01-064 E]
Crystalline character ([1]; predominantly Pattern D lots): Pattern D

COc1ccc2[nH]cc(CCN(C)C)c2c1.O=C(O)c1ccccc1 [5MeODMT benzoate 21-01-064 F]
Crystalline character ([1]; predominantly Pattern D lots): Pattern D

COc1ccc2[nH]cc(CCN(C)C)c2c1.O=C(O)c1ccccc1 [5MeODMT benzoate]
Irritation score on SMI testing [2]: mild | Total MP (% body weight) [2]: 7.38 % body weight | Cumulative amount (μg/cm^2) (ovine nasal epithelium; Time 0.0 min): 0.00 μg/cm^2 | Cumulative amount (μg/cm^2) (ovine nasal epithelium; Time 10.0 min): 0.20 μg/cm^2 | Cumulative amount (μg/cm^2) (ovine nasal epithelium; Time 20.0 min): 3.46 μg/cm^2 | Cumulative amount (μg/cm^2) (ovine nasal epithelium; Time 30.0 min): 9.30 μg/cm^2 | Cumulative amount (μg/cm^2) (ovine nasal epithelium; Time 40.0 min): 15.46 μg/cm^2 | Cumulative amount (μg/cm^2) (ovine nasal epithelium; Time 50.0 min): 21.51 μg/cm^2 | Cumulative amount (μg/cm^2) (ovine nasal epithelium; Time 60.0 min): 27.30 μg/cm^2 | Cumulative amount (μg/cm^2) (ovine nasal epithelium; Time 75.0 min): 33.34 μg/cm^2 | Cumulative amount (μg/cm^2) (ovine nasal epithelium; Time 90.0 min): 39.77 μg/cm^2 | Permeation compared with the hydrochloride salt (ovine nasal epithelium; listed as 5MeODMT benzoate salt): higher permeation | Permeation compared with the hydrochloride salt (ovine nasal epithelium; listed as benzoate salt): higher permeation across the epithelium | Permeation compared with the hydrochloride salt (ovine nasal epithelium; listed as benzoate salt of 5MeODMT): higher permeation | Form/version modification on exposure to variable humidity [3]: no evidence of form/version modification | Stability by DVS profile compared with the hydrochloride salt [3]: significantly higher | Maximum water uptake/loss ([3]; from 0 to 90% humidity): ~0.20% | Solubility (mg · mL^1) ([4]; 2-MeTHF): 31.25 mg · mL^1 | Solubility (mg · mL^1) ([4]; 3-methyl-1-butanol): 31.25 mg · mL^1 | Solubility (mg · mL^1) ([4]; Acetone): 62.5 mg · mL^1 | Solubility (mg · mL^1) ([4]; Chlorobenzene): 12.5 mg · mL^1 | Solubility (mg · mL^1) ([4]; IPA): 42 mg · mL^1 | Solubility (mg · mL^1) ([4]; MEK): 62.5 mg · mL^1 | Solubility (mg · mL^1) ([4]; MeCN): 50 mg · mL^1 | Solubility (mg · mL^1) ([4]; MeOH): 250 mg · mL^1 | Solubility (mg · mL^1) ([4]; MeOH:TBME (1:1)): 125 mg · mL^1 | Solubility (mg · mL^1) ([4]; Nitromethane): 125 mg · mL^1 | Solubility (mg · mL^1) ([4]; THF): 83 mg · mL^1 | Solubility (mg · mL^1) ([4]; iPrOAc): 12.5 mg · mL^1

COc1ccc2[nH]cc(CCN(C)C)c2c1.O=C(O)c1ccccc1 [21-01-071 C1, Pattern C]
XRPD pattern throughout drying, Day 2 ([5]; In vacuo at 50° C., Day 2): B + A | XRPD pattern throughout drying, Day 3 ([5]; In vacuo at 50° C., Day 3): A + B | XRPD pattern throughout drying, Day 1 ([5]; Open to atmosphere at 20 ± 2° C., Day 1): C + B | XRPD pattern throughout drying, Day 4 ([5]; Open to atmosphere at 20 ± 2° C., Day 4): C + B | XRPD pattern throughout drying, Day 6 ([5]; Open to atmosphere at 20 ± 2° C., Day 6): C + B | XRPD pattern throughout drying, Day 8 ([5]; Open to atmosphere at 20 ± 2° C., Day 8): C + B | XRPD pattern throughout drying, Day 12 ([5]; Open to atmosphere at 20 ± 2° C., Day 12): C + B

COc1ccc2[nH]cc(CCN(C)C)c2c1.O=C(O)c1ccccc1 [Amorphous 5MeODMT benzoate]
Solid form after DVS examination (XRPD) ([3]; amorphous input, after DVS at 90% RH): concordant with Pattern A | Initial weight reduction ([3]; amorphous lot 21-01-078, first desorption cycle): ca. 1.4% | Weight increase ([3]; amorphous lot 21-01-078, second sorption, between 50% RH and 90% RH): 0.2% | Weight loss ([3]; amorphous, DVS examination): ca. 2% | Stability of the amorphous form [6]: unstable and undergoes transformation to Pattern A form under all conditions studied | Stability of the amorphous form ([6]; listed as amorphous 5MeODMT benzoate): will convert to Pattern A form material on standing

COc1ccc2[nH]cc(CCN(C)C)c2c1.O=C(O)c1ccccc1 [Pattern B form]
Solid form stability ([5]; open to atmosphere at ca. 20° C., up to 12 days): stable
